Reference: PMC10885593, “Evidence that inositol 1,4,5-trisphosphate 3-kinase and inositol 1,3,4,5-tetrakisphosphate are negative regulators of platelet function” (Research and Practice in Thrombosis and Haemostasis, 2024)

Legend:
Experiment in all cases: competition pull-down with PIP3 beads, Western blot
Assay type in all cases: binding
BTK [1] = biological target: T1, BTK (Homo sapiens, UniProt Q06187); details: human platelet NP40 lysate; competes with bead-bound PIP3 (about 800 nM); pH 7.4, 4 °C, 5 mM EDTA, 5 mM EGTA
T1 construct: native full-length protein in NP40 lysate of washed human platelets, captured on PIP3 beads, Western blot read-out
T1 sequence (Q06187 2-659): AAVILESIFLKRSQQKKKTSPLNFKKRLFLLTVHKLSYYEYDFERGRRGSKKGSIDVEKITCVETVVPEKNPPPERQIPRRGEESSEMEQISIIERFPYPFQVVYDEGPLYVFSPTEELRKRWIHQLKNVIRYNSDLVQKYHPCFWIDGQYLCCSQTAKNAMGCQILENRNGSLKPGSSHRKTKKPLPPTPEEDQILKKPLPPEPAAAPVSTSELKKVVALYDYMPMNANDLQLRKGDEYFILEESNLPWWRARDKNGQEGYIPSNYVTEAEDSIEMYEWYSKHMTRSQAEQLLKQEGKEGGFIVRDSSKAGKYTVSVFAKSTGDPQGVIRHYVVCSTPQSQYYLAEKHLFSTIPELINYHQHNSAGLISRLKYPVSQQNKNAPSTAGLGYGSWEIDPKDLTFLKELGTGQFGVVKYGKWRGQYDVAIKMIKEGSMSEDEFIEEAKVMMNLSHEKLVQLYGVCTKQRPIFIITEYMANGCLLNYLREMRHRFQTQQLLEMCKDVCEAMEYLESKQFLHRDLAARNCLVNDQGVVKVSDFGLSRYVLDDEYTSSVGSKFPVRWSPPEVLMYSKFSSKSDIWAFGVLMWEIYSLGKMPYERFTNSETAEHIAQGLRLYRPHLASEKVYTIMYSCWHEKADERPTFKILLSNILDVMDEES

RASA3 = biological target: T2, RASA3 (Homo sapiens, UniProt Q14644); details: read-out: % inhibition of extraction at 40 μM
T2 construct: native full-length protein in NP40 lysate of washed human platelets, captured on PIP3 beads, Western blot read-out
T2 sequence (Q14644 2-834): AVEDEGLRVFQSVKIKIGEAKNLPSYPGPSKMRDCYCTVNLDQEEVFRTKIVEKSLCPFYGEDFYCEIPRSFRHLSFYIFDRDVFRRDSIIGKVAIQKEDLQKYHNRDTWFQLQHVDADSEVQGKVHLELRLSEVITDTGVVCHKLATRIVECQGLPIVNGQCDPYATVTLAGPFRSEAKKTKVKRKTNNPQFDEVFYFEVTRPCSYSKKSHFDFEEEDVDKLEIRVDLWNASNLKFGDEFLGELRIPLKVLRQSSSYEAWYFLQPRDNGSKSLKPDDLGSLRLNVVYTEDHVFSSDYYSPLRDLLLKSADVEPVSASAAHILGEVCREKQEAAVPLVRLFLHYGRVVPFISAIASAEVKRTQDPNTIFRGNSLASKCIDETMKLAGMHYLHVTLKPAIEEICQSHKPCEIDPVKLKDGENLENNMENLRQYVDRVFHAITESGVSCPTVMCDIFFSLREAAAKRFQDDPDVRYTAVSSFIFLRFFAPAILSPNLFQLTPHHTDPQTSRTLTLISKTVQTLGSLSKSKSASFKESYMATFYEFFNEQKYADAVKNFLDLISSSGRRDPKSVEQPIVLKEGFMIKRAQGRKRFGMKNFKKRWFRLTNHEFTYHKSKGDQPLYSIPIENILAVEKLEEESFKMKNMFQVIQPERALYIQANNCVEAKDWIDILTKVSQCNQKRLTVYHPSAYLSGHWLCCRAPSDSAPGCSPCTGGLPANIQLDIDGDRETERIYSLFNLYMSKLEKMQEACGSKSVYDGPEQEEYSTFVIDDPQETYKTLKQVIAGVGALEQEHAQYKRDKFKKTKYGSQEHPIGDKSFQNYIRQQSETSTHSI

BTK [2] = biological target: T1, BTK; details: human platelet NP40 lysate; competes with bead-bound PIP3 (about 800 nM); pH 7.4, 4 °C, 5 mM EDTA, 5 mM EGTA; remark: listed apart in the source

| SMILES | inhibition of extraction by PIP3 beads at 40 μM (BTK [1]) | inhibition at 40 µM (RASA3) [%] | inhibition of extraction by PIP3 beads (BTK [2]) |
| --- | --- | --- | --- |
| CCCCCCCC(=O)OC[C@H](COP(=O)(O)O[C@H]1[C@H](O)[C@@H](OP(=O)(O)O)[C@H](OP(=O)(O)O)[C@@H](OP(=O)(O)O)[C@H]1O)OC(=O)CCCCCCC [DiC8-PIP3] | exogenously added DiC8-PIP3 was marginally less potent at competing with PIP3 beads |  |  |
| O=P(O)(O)OC1[C@H](O)[C@H](OP(=O)(O)O)C(OP(=O)(O)O)[C@H](OP(=O)(O)O)[C@H]1O (stereo partly drawn) [IP4] |  | > 90 | IP4 also reduced extraction of the PH domain–bearing tyrosine kinase BTK |
